# Assay results reported in patent publication US20080187490A1, “Methods for Treating Amyotrophic Lateral Sclerosis” (priority 2005, published 2008).
# No end group written: not given here.
# Key:
# [1] = test system: human C1q; test: Reverse ELISA: inhibition of PAP immune complex binding to C1q coated plates; settings: for OD 405 nm: PAP pre-incubated with peptide or C1q one hour, 30 min on C1q plates, lower OD = more inhibition, positive control 2.355; for inhibition of C1q binding (in words): ranking among peptides of Table 1
# Text: (§1) For this reason, a “reverse ELISA” technique was used to assess binding of the Fc region to ligands that bind to immune complexed IgG Fc. In a reverse ELISA, the enzyme (e.g., HRP) is not covalently conjugated to the Fc portion of the secondary antibody. Rather, a preformed immune complex of peroxidase-rabbit (or mouse) anti-peroxidase IgG (“PAP” complex) is used. […] In these experiments, an Fe CH2-CH3 cleft binding ligand (e.g., purified human C1q) was bound to microwell plates. In the absence of competitor, PAP complexes bound to the immobilized ligand and the reaction between HRP and its substrate produced a signal. This signal was reduced by polypeptides and compounds provided herein that inhibited PAP binding to the immobilized ligand.
# PAP complexes were formed mixing 2 μl of rabbit anti-peroxidase (Sigma Chemicals, St. Louis, Mo.) with 50 μl of peroxidase (Sigma-Aldrich, St. Louis, Mo.) in 1 ml distilled water. PAP (100 μl) were pre-incubated with 100 μl of peptide for one hour, 100 μl were pre-incubated with 100 μl of peptide or human C1q (Quidel Corp., San Diego, Calif.) for one hour. The C1q/PAP and peptide/PAP mixtures (100 μl) were incubated with C1q coated plates for 30 minutes. After washing, plates were incubated with ATBS (Quidel Corp.) for 15 minutes and read at 405 nm.
# [2] = test system: FcγIIa; test: Reverse ELISA: inhibition of PAP immune complex binding to FcγIIa coated plates; settings: PAP pre-incubated with peptide one hour; lower OD = more inhibition; positive control 1.599
# Text: as §1
# (§2) Once the reverse ELISA protocol was established using the C1q assay, the assay was redesigned using FcγIIa, FcγIIb, and FcγIII in place of C1q. Highly purified FcγIIa, FcγIIb and FcγIII were immunoadsorbed onto plastic microwells. After optimizing the FcγR reverse ELISA system, simple competitive inhibition experiments using polypeptides provided herein were conducted to investigate their ability to inhibit binding of immune complexes to purified FcγR.
# (§3) Falcon microtiter plates were coated with 1:10 dilutions of highly purified FcγIIa, FcγIIb and FcγIII and incubated for 24 hours. The plates were washed and then blocked with 5×BSA blocking solution (Alpha Diagnostic International, San Antonio, Tex.) for 24 hours. PAP immune complexes were formed as described above. PAP (100 μl) were pre-incubated with 100 μl of peptide for one hour. PAP/peptide mixtures were added to the FcγR coated plates and incubated for one hour. After washing, plates were incubated with ABTS substrate for 15 minutes and read at 405 nm.
# [3] = test system: FcγIIb; test: Reverse ELISA: inhibition of PAP immune complex binding to FcγIIb coated plates; settings: PAP pre-incubated with peptide one hour; lower OD = more inhibition; positive control 1.394
# Text: as §1, §2, §3
# [4] = test system: FcγIII; test: Reverse ELISA: inhibition of PAP immune complex binding to FcγIII coated plates; settings: PAP pre-incubated with peptide one hour; lower OD = more inhibition; positive control 1.588
# Text: as §1, §2, §3
# [5] = test system: human wtSOD1; test: Reverse ELISA: inhibition of immune complexed IgG (PAP) binding to wt SOD1 coated plates; settings: for wt SOD1 (OD read at 405 nm): PAP pre-incubated with peptide one hour, 60 min on plates, positive control 2.900; for inhibition of wt SOD1 binding to PAP (in words): ranking among peptides of Table 3
# Method: (§4) PAP complexes were prepared as described in Example 2. PAP (100 μl) were pre-incubated with 100 μl of peptide for one hour, and control (200 μl of PAP) also was incubated for one hour. 100 μl of either PAP or PAP/peptide was added to Falcon microtiter plates that had been coated for 24 hours with either 0.8 μg/ml human wtSOD1 (Sigma-Aldrich) or apo (non Cu, Zn containing) monomeric mutant SOD1 C57S (mSOD1C57S). The PAP or peptide/PAP mixtures (100 μl) were added after one hour to either wt SOD1 or mSOD1C57S coated plates for 60 minutes. After washing, plates were incubated with ATBS for 15 minutes and read at 405 nm.
# [6] = test system: apo monomeric mutant SOD1 C57S (mSOD1C57S); test: Reverse ELISA: inhibition of immune complexed IgG (PAP) binding to mSOD1C57S coated plates; settings: for mSOD1C57S (OD read at 405 nm): PAP pre-incubated with peptide one hour, 60 min on plates, positive control […]; for inhibition of mSOD1C57S binding to PAP (in words): ranking among peptides of Table 3
# Method: as §4
# [7] = test system: FcR; test: FcγR reverse ELISA, overall statement on FcR binding to PAP; settings: ranking among peptides of Table 2
# Method: as §2, §3
# [8] = test system: IgG Fc; test: Alanine substitution, binding of SEQ ID NO:16 to IgG Fc; settings: alanine substitution of IgG Fc Asn-434, His-435, or Tyr-436
# [9] = target: human C1q (Quidel Corp.) (human) (UniProt P02745); test: reverse ELISA: PAP without competitor on C1q-coated plate
# human C1q (Quidel Corp.) (human), sequence (P02745 23-245 limits assumed, chain 1 of 3): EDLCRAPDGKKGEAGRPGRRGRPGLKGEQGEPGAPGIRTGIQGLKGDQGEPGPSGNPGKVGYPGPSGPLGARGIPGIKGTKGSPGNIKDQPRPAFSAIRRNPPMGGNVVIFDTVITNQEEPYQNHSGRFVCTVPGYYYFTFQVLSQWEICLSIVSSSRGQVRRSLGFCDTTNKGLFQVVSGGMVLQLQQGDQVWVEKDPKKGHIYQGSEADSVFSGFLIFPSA
# human C1q (Quidel Corp.) (human), sequence (P02746 28-253 limits assumed, chain 2 of 3, further chain): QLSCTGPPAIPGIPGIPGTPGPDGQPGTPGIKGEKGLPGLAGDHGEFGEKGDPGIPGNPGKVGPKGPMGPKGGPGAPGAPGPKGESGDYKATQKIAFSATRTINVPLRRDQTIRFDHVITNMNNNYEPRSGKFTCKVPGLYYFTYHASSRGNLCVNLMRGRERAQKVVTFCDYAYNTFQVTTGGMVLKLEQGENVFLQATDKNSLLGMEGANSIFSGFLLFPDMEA
# human C1q (Quidel Corp.) (human), sequence (P02747 29-245 limits assumed, chain 3 of 3, further chain): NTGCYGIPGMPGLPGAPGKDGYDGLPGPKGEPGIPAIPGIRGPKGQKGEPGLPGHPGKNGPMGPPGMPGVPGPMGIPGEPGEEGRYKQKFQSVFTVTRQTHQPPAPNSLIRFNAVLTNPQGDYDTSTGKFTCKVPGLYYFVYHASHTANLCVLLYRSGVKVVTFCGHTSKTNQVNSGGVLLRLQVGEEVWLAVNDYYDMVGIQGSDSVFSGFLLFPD
# [10] = target: FcγIII (highly purified); test: reverse ELISA: PAP without competitor on FcγIII-coated plate
# [11] = target: FcγIIa (highly purified); test: reverse ELISA: PAP without competitor on FcγIIa-coated plate
# FcγIIa (highly purified), sequence (P12318 34-317): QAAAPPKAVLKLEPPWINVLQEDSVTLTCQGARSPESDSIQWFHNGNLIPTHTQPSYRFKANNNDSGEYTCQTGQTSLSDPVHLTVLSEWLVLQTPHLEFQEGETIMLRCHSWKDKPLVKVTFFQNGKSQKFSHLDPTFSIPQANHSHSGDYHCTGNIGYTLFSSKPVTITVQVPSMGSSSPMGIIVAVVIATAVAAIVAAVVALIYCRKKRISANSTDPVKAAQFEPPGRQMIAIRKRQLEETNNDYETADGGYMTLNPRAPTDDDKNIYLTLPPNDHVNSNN
# [12] = target: FcγIIb (highly purified); test: reverse ELISA: PAP without competitor on FcγIIb-coated plate
# FcγIIb (highly purified), sequence (P31994 43-310): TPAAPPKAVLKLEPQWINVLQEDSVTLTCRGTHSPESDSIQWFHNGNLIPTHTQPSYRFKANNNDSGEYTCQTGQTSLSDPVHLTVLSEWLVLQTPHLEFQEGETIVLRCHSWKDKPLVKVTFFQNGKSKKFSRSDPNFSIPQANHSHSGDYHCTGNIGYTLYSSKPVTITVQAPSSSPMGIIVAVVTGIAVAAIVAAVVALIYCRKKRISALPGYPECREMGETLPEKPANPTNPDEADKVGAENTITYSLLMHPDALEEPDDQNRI
# [13] = target: preformed immune complex of peroxidase-rabbit anti-peroxidase IgG (PAP complex) (rabbit; horseradish) (UniProt P00433); test: competition reverse ELISA: PAP pre-incubated with peptide, residual PAP binding to C1q-coated plate (competitor: immobilized C1q)
# preformed immune complex of peroxidase-rabbit anti-peroxidase IgG (PAP complex) (rabbit; horseradish), sequence (P00433 31-338, one chain of several): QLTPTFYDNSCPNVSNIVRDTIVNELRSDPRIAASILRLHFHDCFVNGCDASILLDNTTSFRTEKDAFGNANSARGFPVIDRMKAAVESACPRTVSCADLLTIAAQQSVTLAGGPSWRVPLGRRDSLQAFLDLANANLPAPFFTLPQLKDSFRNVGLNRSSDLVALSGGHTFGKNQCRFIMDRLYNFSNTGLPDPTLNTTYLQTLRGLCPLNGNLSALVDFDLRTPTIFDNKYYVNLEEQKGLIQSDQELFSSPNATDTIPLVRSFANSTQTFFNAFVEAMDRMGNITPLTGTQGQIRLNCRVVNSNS
# [14] = target: preformed immune complex of peroxidase-rabbit anti-peroxidase IgG (PAP complex) (rabbit; horseradish) (UniProt P00433); test: competition reverse ELISA: PAP pre-incubated with peptide, residual PAP binding to FcγIII-coated plate (competitor: immobilized FcγIII)
# [15] = target: preformed immune complex of peroxidase-rabbit anti-peroxidase IgG (PAP complex) (rabbit; horseradish) (UniProt P00433); test: competition reverse ELISA: PAP pre-incubated with peptide, residual PAP binding to FcγIIa-coated plate (competitor: immobilized FcγIIa)
# [16] = target: preformed immune complex of peroxidase-rabbit anti-peroxidase IgG (PAP complex) (rabbit; horseradish) (UniProt P00433); test: competition reverse ELISA: PAP pre-incubated with peptide, residual PAP binding to FcγIIb-coated plate (competitor: immobilized FcγIIb)
# [17] = target: preformed immune complex of peroxidase-rabbit anti-peroxidase IgG (PAP complex) (rabbit; horseradish) (UniProt P00433); test: competition reverse ELISA: PAP pre-incubated with peptide, residual PAP binding to wt SOD1-coated plate (competitor: immobilized wt SOD1)
# [18] = target: preformed immune complex of peroxidase-rabbit anti-peroxidase IgG (PAP complex) (rabbit; horseradish) (UniProt P00433); test: competition reverse ELISA: PAP pre-incubated with peptide, residual PAP binding to mSOD1C57S-coated plate (competitor: immobilized mSOD1C57S)
# preformed immune complex of peroxidase-rabbit anti-peroxidase IgG (PAP complex), sequence (P00433 31-338, one chain of several): as above
Molecule,OD 405 nm [13] [OD 405 nm],OD 405 nm [14] [OD 405 nm],OD 405 nm [15] [OD 405 nm],OD 405 nm [16] [OD 405 nm],OD 405 nm [1],FcγIIa (OD read at 405 nm) [2],FcγIIb (OD read at 405 nm) [3],FcγIII (OD read at 405 nm) [4],other results
APPCAFHLGELVWCT (not fully specified; cysteine pairing not given here) [SEQ ID NO:15],,,,,0.983,0.605,0.380,0.880,
APPCARHLGELVWCT [SEQ ID NO:14],,,,,0.567,0.956,0.768,0.709,inhibition of C1q binding (in words) [1]: next best result
APPCAWHLGELVWCT [SEQ ID NO:13],,,,,1.148,0.658,0.562,0.530,
Ala-Pro-Pro-Asp-Cys-Ala-Trp-His-Leu-Gly-Glu-Leu-Val-Trp-Cys-Thr (APPDCAWHLGELVWCT) [SEQ ID NO:16],,,,,0.389,0.509,0.496,0.670,"inhibition of C1q binding (in words) [1]: greatest inhibition; wt SOD1 (OD read at 405 nm) [5]: 0.277; inhibition of wt SOD1 binding to PAP (in words) [5]: greatest inhibition; inhibition of wt SOD1 binding to PAP (in words) ([5]; listed as 16): best inhibition; mSOD1C57S (OD read at 405 nm) [6]: 0.226; inhibition of mSOD1C57S binding to PAP (in words) [6]: greatest inhibition; inhibition of mSOD1C57S binding to PAP (in words) ([6]; listed as 16): best inhibition; inhibition of FcR binding to PAP (in words) [7]: greatest inhibition; ΔΔG, disruption of binding [8]: ≥ 6.28 kJ/mol"
Asp-Cys-Ala-Phe-His-Leu-Gly-Glu-Leu-Val-Trp-Cys-Thr (DCAFHLGELVWCT) [SEQ ID NO:3],,,,,0.859,0.660,0.510,0.810,
Asp-Cys-Ala-Trp-His-Leu-Gly-Glu-Leu-Val-Trp-Cys-Thr [SEQ ID NO:2],,,,,1.100,0.561,0.532,0.741,wt SOD1 (OD read at 405 nm) [5]: 0.292; inhibition of wt SOD1 binding to PAP (in words) ([5]; listed as 2): inhibited; mSOD1C57S (OD read at 405 nm) [6]: 0.592; inhibition of mSOD1C57S binding to PAP (in words) ([6]; listed as 2): inhibited
preformed immune complex of peroxidase-rabbit anti-peroxidase IgG (PAP complex) (from UniProt P00433 31-338) (antibody),,,,,,,,,OD 405 nm [9]: 2.35 OD 405 nm; OD 405 nm [10]: 1.59 OD 405 nm; OD 405 nm [11]: 1.6 OD 405 nm; OD 405 nm [12]: 1.39 OD 405 nm

# The next lines start with results.
OD 405 nm [13] [OD 405 nm],OD 405 nm [14] [OD 405 nm],OD 405 nm [15] [OD 405 nm],OD 405 nm [16] [OD 405 nm],Molecule,OD 405 nm [1],FcγIIa (OD read at 405 nm) [2],FcγIIb (OD read at 405 nm) [3],FcγIII (OD read at 405 nm) [4],other results
0.567,0.709,0.956,0.768,APPCARHLGELVWCT (not fully specified; cysteine pairing not given here) [Peptide … (SEQ ID NO:14)],,,,,
1.15,0.53,0.658,0.562,APPCAWHLGELVWCT (not fully specified; cysteine pairing not given here) [Peptide … (SEQ ID NO:13)],,,,,
0.859,0.81,0.66,0.51,DCAFHLGELVWCT [Peptide … (SEQ ID NO:3)],,,,,
0.983,0.88,0.605,0.38,APPCAFHLGELVWCT (not fully specified; cysteine pairing not given here) [Peptide … (SEQ ID NO:15)],,,,,
0.389,0.67,0.509,0.496,APPDCAWHLGELVWCT [Peptide … (SEQ ID NO:16)],,,,,OD 405 nm [17]: 0.277 OD 405 nm; OD 405 nm [18]: 0.226 OD 405 nm
